pEC50: −log10 of the molar value.
Columns and labels:
[1] = test system: HEK293 cells overexpressing APOL1 G2; assay: APOL1 G2 HEK293 cell rescue assay (reversal of cell death caused by overexpression of APOL1); assay type: cell-based; settings: geometric mean of at least 2 assay runs, † = single assay run
Method in brief: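 Each compound tested in duplicate wells on one plate per run, with values usually the geometric mean across at least two runs on different days, occasionally from one run only. Read-out: concentration giving half-maximal rescue of APOL1 G2 overexpression-induced death of HEK293 cells.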

[2] = molecular target: T1, APOL1 G2 (Homo sapiens, UniProt O14791, DEL388-389); assay: APOL1-mediated calcium transport (calcium influx) assay, HEK T-REx/GCaMP6f/APOL1 G2 K6.3 cells, FLIPR TETRA; assay type: cell-based; settings: prevention of calcium influx; geometric mean of at least 2 assay runs; † = average of a technical replicate from a single assay run
T1 construct: expressed in transfected cells; host or cells: HEK293 T-REx clonal line stably expressing GCaMP6f (HEK T-REx/GCaMP6f/APOL1 G2 K6.3), doxycycline induced
T1 sequence (O14791 with tags, fused parts or gaps DEL388-389): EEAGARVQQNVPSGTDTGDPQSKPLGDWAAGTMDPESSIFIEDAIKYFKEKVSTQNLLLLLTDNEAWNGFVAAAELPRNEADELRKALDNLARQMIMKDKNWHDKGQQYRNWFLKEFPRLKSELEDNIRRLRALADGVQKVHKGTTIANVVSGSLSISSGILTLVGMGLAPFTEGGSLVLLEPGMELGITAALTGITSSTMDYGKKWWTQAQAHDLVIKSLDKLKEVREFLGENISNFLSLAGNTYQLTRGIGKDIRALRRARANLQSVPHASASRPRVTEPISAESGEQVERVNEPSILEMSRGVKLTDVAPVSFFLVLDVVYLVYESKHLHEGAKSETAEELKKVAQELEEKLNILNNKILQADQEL
Method in brief: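 A HEK293 T-REx clone stably expressing GCaMP6f had APOL1 G2 induced with doxycycline (20 ng/mL solution added) for 6 h. Cells were then washed into Ca2+-free Tyrode's buffer (pH 7.4) and preincubated with compounds (duplicate 8-point) for 10 min at room temperature. Ca2+ injection to 5 mM final produced FLIPR GCaMP fluorescence, giving AC50 for influx inhibition (geometric mean, ≥2 runs).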

[3] = Homo sapiens, HEK293, HEK293 overexpressing APOL1 G2

## C[C@@H](COc1ccc(S(C)(=O)=O)cc1)N1CCC2(CC1)C(=O)Nc1ccc(Cl)cc12 (single isomer, unassigned) [Compound 10]
[1]; [3]
  pEC50: 7.04
[2]
  AC50: 1.27 µM

## C[C@@H](COc1ccc(S(C)(=O)=O)cc1)N1CCC2(CC1)C(=O)Nc1ccccc12 (single isomer, unassigned) [Compound 12]
[1]; [3]
  pEC50: 6.51
[2]
  AC50: < 0.457 µM

## C[C@@H](CN1CCC2(CC1)C(=O)Nc1ccccc12)Oc1ccc(S(C)(=O)=O)cc1 (single isomer, unassigned) [Compound 13]
[1]; [3]
  pEC50: 5.52
[2]
  AC50: < 0.587 µM

## O=C1NCC2c3ccc(OCCN4CCC5(CC4)C(=O)Nc4ccc(Cl)cc45)cc3CCN12 (single isomer, unassigned) [Compound 116, (S) or (R)-5-chloro-1′-[2-({3-oxo-1H,2H,3H,5H,6H,10bH-imidazo[4,3-a]isoquinolin-8-yl}oxy)ethyl]-1,2-dihydrospiro[indole-3,4′-piperidin]-2-one]
[1]; [3]
  pEC50: 7.09
[2]
  AC50: 0.466 µM

## O=C1NCC2c3ccc(OCCN4CCC5(CC4)C(=O)Nc4ccc(Cl)cc45)cc3CCN12 (single isomer, unassigned) [Compound 117, (R) or (S)-5-chloro-1′-[2-({3-oxo-1H,2H,3H,5H,6H,10bH-imidazo[4,3-a]isoquinolin-8-yl}oxy)ethyl]-1,2-dihydrospiro[indole-3,4′-piperidin]-2-one]
[1]; HEK293 overexpressing APOL1 G2
  pEC50: 7.09
[2]
  AC50: 0.396 µM

## N#Cc1ccc2c(c1)C1(CCN(CCOc3ccc4c(c3)CCN3C(=O)NCC43)CC1)C(=O)N2 (single isomer, unassigned) [Compound 120, (R) or (S)-2-oxo-1′-[2-({3-oxo-1H,2H,3H,5H,6H,10bH-imidazo[4,3-a]isoquinolin-8-yl}oxy)ethyl]-1,2-dihydrospiro[indole-3,4′-piperidine]-5-carbonitrile]
[1]; HEK293 overexpressing APOL1 G2
  pEC50: 6.49
[2]
  AC50: 1.19 µM

## O=C1CCC2c3ccc(OCCN4CCC5(CC4)C(=O)Nc4ccc(Cl)cc45)cc3CCN12 (single isomer, unassigned) [Compound 122, (S) or (R)-5-chloro-1′-[2-({3-oxo-1H,2H,3H,5H,6H,10bH-pyrrolo[2,1-a]isoquinolin-8-yl}oxy)ethyl]-1,2-dihydrospiro[indole-3,4′-piperidin]-2-one]
[1]; [3]
  pEC50: 7.06
[2]
  AC50: 0.616 µM

## O=C1CCC2c3ccc(OCCN4CCC5(CC4)C(=O)Nc4ccc(Cl)cc45)cc3CCN12 (single isomer, unassigned) [Compound 123, (R) or (S)-5-chloro-1′-[2-({3-oxo-1H,2H,3H,5H,6H,10bH-pyrrolo[2,1-a]isoquinolin-8-yl}oxy)ethyl]-1,2-dihydrospiro[indole-3,4′-piperidin]-2-one]
[1]; HEK293 overexpressing APOL1 G2
  pEC50: 7.10
[2]
  AC50: 0.796 µM

## CC(c1ccc(OCCN2CCC3(CC2)C(=O)Nc2ccc(C#N)cc23)cc1)S(C)(=O)=O (single isomer, unassigned) [Compound 134, (S) or (R)-1′-{2-[4-(1-methanesulfonylethyl)phenoxy]ethyl}-2-oxo-1,2-dihydrospiro[indole-3,4′-piperidine]-5-carbonitrile]
[1]; [3]
  pEC50: 6.70
[2]
  AC50: 0.879 µM

## CC(c1ccc(OCCN2CCC3(CC2)C(=O)Nc2ccc(C#N)cc23)cc1)S(C)(=O)=O (single isomer, unassigned) [Compound 135, (R) or (S)-1′-{2-[4-(1-methanesulfonylethyl)phenoxy]ethyl}-2-oxo-1,2-dihydrospiro[indole-3,4′-piperidine]-5-carbonitrile]
[1]; HEK293 overexpressing APOL1 G2
  pEC50: 6.68
[2]
  AC50: 0.763 µM

## CC(c1c(F)cc(OCCN2CCC3(CC2)C(=O)Nc2ccc(C#N)cc23)cc1F)S(C)(=O)=O (single isomer, unassigned) [Compound 138, (S) or (R)-1′-{2-[3,5-difluoro-4-(1-methanesulfonylethyl)phenoxy]ethyl}-2-oxo-1,2-dihydrospiro[indole-3,4′-piperidine]-5-carbonitrile]
[1]; [3]
  pEC50: 7.11
[2]
  AC50: 1.22 µM

## CC(c1c(F)cc(OCCN2CCC3(CC2)C(=O)Nc2ccc(C#N)cc23)cc1F)S(C)(=O)=O (single isomer, unassigned) [Compound 139, (R) or (S)-1′-{2-[3,5-difluoro-4-(1-methanesulfonylethyl)phenoxy]ethyl}-2-oxo-1,2-dihydrospiro[indole-3,4′-piperidine]-5-carbonitrile]
[1]; HEK293 overexpressing APOL1 G2
  pEC50: 6.88
[2]
  AC50: 1.12 µM

## CC(c1c(F)cc(OCCN2CCC3(CC2)C(=O)Nc2ccc(Cl)cc23)cc1F)S(C)(=O)=O (single isomer, unassigned) [Compound 142, (S) or (R)-5-chloro-1′-{2-[3,5-difluoro-4-(1-methanesulfonylethyl)phenoxy]ethyl}-1,2-dihydrospiro[indole-3,4′-piperidin]-2-one]
[1]; [3]
  pEC50: 7.32
[2]
  AC50: 0.845 µM

## CC(c1c(F)cc(OCCN2CCC3(CC2)C(=O)Nc2ccc(Cl)cc23)cc1F)S(C)(=O)=O (single isomer, unassigned) [Compound 143, (R) or (S)-5-chloro-1′-{2-[3,5-difluoro-4-(1-methanesulfonylethyl)phenoxy]ethyl}-1,2-dihydrospiro[indole-3,4′-piperidin]-2-one]
[1]; HEK293 overexpressing APOL1 G2
  pEC50: 7.43
[2]
  AC50: 0.701 µM

## CN=S(C)(=O)c1ccc(OCCN2CCC3(CC2)C(=O)Nc2ccc(Cl)cc23)cc1 (single isomer, unassigned) [Compound 148, (S) or (R)-5-chloro-1′-(2-{4-[methyl(methylimino)oxo-λ^6-sulfanyl]phenoxy}ethyl)-1,2-dihydrospiro[indole-3,4′-piperidin]-2-one]
[1]; [3]
  pEC50: 6.97
[2]
  AC50: 0.96 µM

## CN=S(C)(=O)c1ccc(OCCN2CCC3(CC2)C(=O)Nc2ccc(Cl)cc23)cc1 (single isomer, unassigned) [Compound 149, (R) or (S)-5-chloro-1′-(2-{4-[methyl(methylimino)oxo-λ^6-sulfanyl]phenoxy}ethyl)-1,2-dihydrospiro[indole-3,4′-piperidin]-2-one]
[1]; HEK293 overexpressing APOL1 G2
  pEC50: 7.00
[2]
  AC50: 0.971 µM

## CN=S(C)(=O)c1ccc(OCCN2CCC3(CC2)C(=O)Nc2ccc(C#N)cc23)cc1 (single isomer, unassigned) [Compound 151, (S) or (R)-1′-(2-{4-[methyl(methylimino)oxo-λ^6-sulfanyl]phenoxy}ethyl)-2-oxo-1,2-dihydrospiro[indole-3,4′-piperidine]-5-carbonitrile]
[1]; [3]
  pEC50: 6.40
[2]
  AC50: 1.74 µM

## CN=S(C)(=O)c1ccc(OCCN2CCC3(CC2)C(=O)Nc2ccc(C#N)cc23)cc1 (single isomer, unassigned) [Compound 152, (R) or (S)-1′-(2-{4-[methyl(methylimino)oxo-λ^6-sulfanyl]phenoxy}ethyl)-2-oxo-1,2-dihydrospiro[indole-3,4′-piperidine]-5-carbonitrile]
[1]; HEK293 overexpressing APOL1 G2
  pEC50: 6.39
[2]
  AC50: 1.82 µM

## O=C1Nc2ccc(Cl)cc2C12CCN(CCOc1ccc(C3CCCS3(=O)=O)cc1)CC2 (single isomer, unassigned) [Compound 176, (S) or (R)-2-[4-(2-{5-chloro-2-oxo-1,2-dihydrospiro[indole-3,4′-piperidin]-1′-yl}ethoxy)phenyl]-1λ^6-thiolane-1,1-dione]
[1]; [3]
  pEC50: 7.33
[2]
  AC50: 0.547 µM

## O=C1Nc2ccc(Cl)cc2C12CCN(CCOc1ccc(C3CCCS3(=O)=O)cc1)CC2 (single isomer, unassigned) [Compound 177, (R) or (S)-2-[4-(2-{5-chloro-2-oxo-1,2-dihydrospiro[indole-3,4′-piperidin]-1′-yl}ethoxy)phenyl]-1λ^6-thiolane-1,1-dione]
[1]; HEK293 overexpressing APOL1 G2
  pEC50: 7.11
[2]
  AC50: 0.67 µM

## CS(=O)(=O)c1ccc(OCCN2CCC3(CC2)C(=O)Nc2c(C#N)cc(Cl)cc23)cc1 [Compound 9, 5-chloro-1′-[2-(4-methanesulfonylphenoxy)ethyl]-2-oxo-1,2-dihydrospiro[indole-3,4′-piperidine]-7-carbonitrile]
[1]; [3]
  pEC50: 5.75
[2]
  AC50: 1.31 µM

## CS(=O)(=O)CCCn1ncc2cc(OCCN3CCC4(CC3)C(=O)Nc3ccc(Cl)cc34)ccc21 [Compound 14, 5-chloro-1′-(2-{[1-(3-methanesulfonylpropyl)-1H-indazol-5-yl]oxy}ethyl)-1,2-dihydrospiro[indole-3,4′-piperidin]-2-one]
[1]; [3]
  pEC50: 6.89
[2]
  AC50: 0.704 µM

## O=C1Nc2ccc(Cl)cc2C12CCN(CCOc1ccc3c(cnn3C3COC3)c1)CC2 [Compound 15, 5-chloro-1′-(2-{[1-(oxetan-3-yl)-1H-indazol-5-yl]oxy}ethyl)-1,2-dihydrospiro[indole-3,4′-piperidin]-2-one]
[1]; [3]
  pEC50: 6.91
[2]
  AC50: 0.654 µM

## CC(C)n1ncc2cc(OCCN3CCC4(CC3)C(=O)Nc3ccc(Cl)cc34)ccc21 [Compound 16, 5-chloro-1′-(2-{[1-(propan-2-yl)-1H-indazol-5-yl]oxy}ethyl)-1,2-dihydrospiro[indole-3,4′-piperidin]-2-one]
[1]; [3]
  pEC50: 6.95
[2]
  AC50: 1.16 µM

— patent US12344610B2, “APOL1 inhibitors and methods of use” (Maze Therapeutics, Inc., priority 2022, dated 2025)
